Columns and labels:
SP-receptors [1] = test: Displacement of / binding of [125I]BH-SP, human glioma membranes; details: Figure 1
Description: (§1) Binding studies in vitro are carried out in a standardized system by studying the displacement of ^125I-Bolton Hunter substance P {[^125I]BH-SP} by the above-synthetized labelled peptides.

[2] = tested on: human meningioma membranes; test: Binding of [125I]BH-SP to human meningioma membranes; details: Figure 1
Description: as §1

[3] = assay type: in vitro ADME, rat
From the text: A liver perfusion model is used as described by Docter et al. in Endocrinology 1990, 126, 451-459. It is a generally accepted fact in this art, that handling of bio-active substances by the isolated perfused rat liver according to this model has a very good predictable value for the appearance of metabolites of the used substance in the circulation of human beings. In short, in this model isolated livers are perfused in a recirculating system with Krebs-Ringer medium supplemented with 1% bovine serum albumin and 10 mM glucose. After 0.5 hr preperfusion, experiments are started by addition of the labelled substance P (5 µCi) to the medium. At regular time points medium samples are taken. Medium samples are analyzed by column chromatography, using Seppak^(R) C-18 columns.
The average results are presented in Figures 4-6, showing the disappearance of the total radioactivity ("tot. act.") and of the peptide-bound radioactivity ("protein") with concomitant appearance of non-peptide bound radioactivity in the circulating medium as a degradation product.
Figures 7-9 show the excretion of the tested labelled peptides into the bile.

SP-receptors [4] = test: Displacement of / binding of [125I]BH-SP, rat brain cortex membranes; details: membranes of the cortex of rat brains; Figure 1
Description: as §1

specific binding to membranes (SP-receptors [1]): specifically binds
specific binding to membranes [2]: not
specific binding to membranes (SP-receptors [4]): specifically binds
Substance: [^125I]BH-SP: ^125I-Bolton Hunter substance P, known radioligand from in vitro binding studies
liver metabolic clearance [3]: relatively fast
